# Data reported in patent US8716316B2 (Hoffmann-La Roche Inc., priority 2009, dated 2014).
# Target: T1, human mGlu5a receptor (Homo sapiens, UniProt P41594)
# T1 construct: expressed in transfected cells
# Test: Intracellular Ca2+ mobilization assay
# Assay type: cell-based
# Conditions: for Emax: HEK293, maximal response in % of the maximal stimulatory effect obtained with saturating concentrations of L-glutamate, HEK-293 human mGlu5a cells, L-glutamate at EC20, read-out: Efficacy (%); for EC50: HEK-293 cells stably transfected with human mGlu5a receptor, pre-incubation 10-30 min with test compound, then L-glutamate at EC20 (typically around 80 μM), Fluo-4AM fluorescence, read-out: EC50 (nM) mGluR5 PAM
# Description: A monoclonal HEK-293 cell line stably transfected with a cDNA encoding for the human mGlu5a receptor was generated; for the work with mGlu5 Positive Allosteric Modulators (PAMs), a cell line with low receptor expression levels and low constitutive receptor activity was selected to allow the differentiation of agonistic versus PAM activity. Cells were cultured according to standard protocols (Freshney, 2000) in Dulbecco's Modified Eagle Medium with high glucose supplemented with 1 mM glutamine, 10% (vol/vol) heat-inactivated bovine calf serum, Penicillin/Streptomycin, 50 μg/ml hygromycin and 15 μg/ml blasticidin (all cell culture reagents and antibiotics from Invitrogen, Basel, Switzerland).
# About 24 hrs before an experiment, 5×10^4 cells/well were seeded in poly-D-lysine coated, black/clear-bottomed 96-well plates. The cells were loaded with 2.5 μM Fluo-4AM in loading buffer (1×HBSS, 20 mM HEPES) for 1 hr at 37° C. and washed five times with loading buffer. The cells were transferred into a Functional Drug Screening System 7000 (Hamamatsu, Paris, France), and 11 half logarithmic serial dilutions of test compound at 37° C. were added and the cells were incubated for 10-30 min. with on-line recording of fluorescence. Following this pre-incubation step, the agonist L-glutamate was added to the cells at a concentration corresponding to EC20 (typically around 80 μM) with on-line recording of fluorescence; in order to account for day-to-day variations in the responsiveness of cells, the EC20 of glutamate was determined immediately ahead of each experiment by recording of a full dose-response curve of glutamate.
# Responses were measured as peak increase in fluorescence minus basal (i.e. fluorescence without addition of L-glutamate), normalized to the maximal stimulatory effect obtained with saturating concentrations of L-glutamate. Graphs were plotted with the % maximal stimulatory using XLfit, a curve fitting program that iteratively plots the data using Levenburg Marquardt algorithm. The single site competition analysis equation used was y=A+((B−A)/(1+((x/C)D))), where y is the % maximal stimulatory effect, A is the minimum y, B is the maximum y, C is the EC50, x is the log 10 of the concentration of the competing compound and D is the slope of the curve (the Hill Coefficient). From these curves the EC50 (concentration at which half maximal stimulation was achieved), the Hill coefficient as well as the maximal response in % of the maximal stimulatory effect obtained with saturating concentrations of L-glutamate were calculated.
# A depression of the signal observed after addition of the EC20 concentration of L-glutamate was indicative of an inhibitory activity of the test compound.
# T1 sequence (P41594 21-1180 isoform P41594-2 limits assumed): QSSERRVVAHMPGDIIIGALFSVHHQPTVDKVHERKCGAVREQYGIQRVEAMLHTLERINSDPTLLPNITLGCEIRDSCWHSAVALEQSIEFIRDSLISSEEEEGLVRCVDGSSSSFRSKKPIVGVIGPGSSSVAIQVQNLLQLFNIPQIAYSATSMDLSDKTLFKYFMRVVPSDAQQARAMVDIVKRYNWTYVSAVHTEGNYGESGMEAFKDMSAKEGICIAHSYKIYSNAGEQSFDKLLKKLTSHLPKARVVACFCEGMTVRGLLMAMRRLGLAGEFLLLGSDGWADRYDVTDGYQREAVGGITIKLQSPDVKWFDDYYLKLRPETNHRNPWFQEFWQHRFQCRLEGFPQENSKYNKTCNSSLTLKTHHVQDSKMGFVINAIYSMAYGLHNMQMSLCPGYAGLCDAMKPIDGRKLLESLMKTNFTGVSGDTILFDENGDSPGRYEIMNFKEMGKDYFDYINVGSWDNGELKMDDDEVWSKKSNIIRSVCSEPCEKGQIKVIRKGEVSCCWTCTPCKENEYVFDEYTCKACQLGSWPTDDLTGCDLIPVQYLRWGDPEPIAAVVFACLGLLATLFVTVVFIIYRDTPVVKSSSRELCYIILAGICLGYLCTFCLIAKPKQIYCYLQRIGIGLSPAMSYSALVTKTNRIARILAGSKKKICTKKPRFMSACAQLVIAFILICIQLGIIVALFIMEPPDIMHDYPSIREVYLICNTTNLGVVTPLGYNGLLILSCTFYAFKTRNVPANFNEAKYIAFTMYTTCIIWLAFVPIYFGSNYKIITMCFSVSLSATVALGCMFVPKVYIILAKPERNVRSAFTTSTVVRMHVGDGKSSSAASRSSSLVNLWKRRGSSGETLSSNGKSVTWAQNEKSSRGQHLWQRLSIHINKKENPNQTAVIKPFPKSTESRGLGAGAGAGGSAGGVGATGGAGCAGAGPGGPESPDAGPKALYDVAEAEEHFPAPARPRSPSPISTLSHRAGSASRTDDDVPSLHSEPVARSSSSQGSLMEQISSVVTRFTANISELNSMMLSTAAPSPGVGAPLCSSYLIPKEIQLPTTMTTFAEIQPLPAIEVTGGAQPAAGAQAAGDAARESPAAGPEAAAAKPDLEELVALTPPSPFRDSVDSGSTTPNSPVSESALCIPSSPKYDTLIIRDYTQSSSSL
Compound,Emax,EC50
"O=C1OCCCN1Cc1ccc(C#Cc2ccccc2)cn1 [Example 34, 3-(5-Phenylethynyl-pyridin-2-ylmethyl)-[1,3]oxazinan-2-one]",119%,174 nM
"CN1CCN(Cc2ccc(C#Cc3ccccc3)cn2)C1=O [Example 35, 1-Methyl-3-(5-phenylethynyl-pyridin-2-ylmethyl)-imidazolidin-2-one]",119%,68 nM
"CC1(C)CCC(=O)N1Cc1ccc(C#Cc2ccccc2)cn1 [Example 36, 5,5-Dimethyl-1-(5-phenylethynyl-pyridin-2-ylmethyl)-pyrrolidin-2-one]",82%,84 nM
"O=C1N(Cc2ccc(C#Cc3ccccc3)cn2)CCN1c1ccccc1 [Example 37, 1-Phenyl-3-(5-phenylethynyl-pyridin-2-ylmethyl)-imidazolidin-2-one]",84%,103 nM
"CC1(C)CCC(=O)N(Cc2ccc(C#Cc3ccccc3)cn2)C1 [Example 38, 5,5-Dimethyl-1-(5-phenylethynyl-pyridin-2-ylmethyl)-piperidin-2-one]",94%,161 nM
"CN1CCCN(Cc2ccc(C#Cc3ccccc3)cn2)C1=O [Example 40, 1-Methyl-3-(5-phenylethynyl-pyridin-2-ylmethyl)-tetrahydro-pyrimidin-2-one]",123%,140 nM
"O=C1OCCN1Cc1ncc(C#Cc2ccccc2)cn1 [Example 42, 3-(5-Phenylethynyl-pyrimidin-2-ylmethyl)-oxazolidin-2-one]",120%,631 nM
"CN(c1ncc(C#Cc2ccccc2)cn1)C1CCOCC1 [Example 43, Methyl-(5-phenylethynyl-pyrimidin-2-yl)-(tetrahydro-pyran-4-yl)-amine]",84%,195 nM
CN(c1ccc(C#Cc2ccccc2)cn1)C1CCOCC1 [Example 44],103%,338 nM
